Measurements taken from patent US9309187B2, “EP2 receptor agonists” (TAKEDA GMBH, priority 2012, dated 2016).

These compounds were tested on plasma TNFα after i.v. LPS (assay: In vivo assay: LPS-induced TNFα release in rats). Conditions: Rattus norvegicus; p.o. 1 h prior to i.v. LPS 20 μg/kg; plasma TNFα 1 h after LPS.
Parameters: species or system Sprague Dawley rats
Description: In Vivo Assay: LPS-Induced TNFα Release in Rats
Intravenously administration of lipopolysaccharide (LPS) causes a systemic inflammation characterised by release of pro-inflammatory cytokines, e.g. tumor necrosis factor alpha (TNFα). Selective EP2 agonists are administered per oral 1 h prior intravenously LPS challenge in rats. The anti-inflammatory activity of the selective EP2 agonists is assessed based on TNFα levels in blood plasma 1 h after LPS exposure.
Male Sprague Dawley rats weighing 250-300 g were used. Rats were delivered 1 week prior to the experiments and had free access to water and food.
The test compound was mixed with 1.33% polyethylenglycol 400 (PEG400, Merck, Darmstadt, Germany) and subsequently suspended in 2% methocel solution (hypromellose, Sigma, Steinheim, Germany) containing Antifoam C Emulsion (Sigma, Steinheim, Germany, 0.1 mL/15 mL) using a mixing device (ULTRA-TURRAX T8 basic, VDI12, VWR International GmbH). The aimed doses were prepared by dilution series from the stock suspension, which was prepared for the administration of the highest dose in each experiment.
The administered volume of the compound suspension is 10 mL/kg. On day of the experiment the rat body weights were documented to calculate the volume to be administered. LPS challenged control animals received drug-free vehicle solution as placebo. Test compounds and vehicle were administered by oral gavage 1 h prior to LPS challenge.
LPS (from Escherichia coli 055:B5, Sigma, Steinheim, Germany) was solubilised in 0.9% sterile NaCl solution (B. Braun Melsungen AG, Melsungen, Germany) containing 0.1% hydroxylamine (Sigma, Steinheim, Germany). LPS is intravenously (i.v.) injected at a dose of 20 μg/kg (1 mL/kg b.w.) 1 h after compound or vehicle administration.
One hour after LPS-challenge, the animals were sacrificed by inhalative isofluran anaesthesia and subsequently cervical dislocation. Heparinised blood was obtained by heart puncture. Blood was centrifuged (21,000×g, 4° C., 10 min), and plasma samples were kept frozen at −20° C. until determination of TNFα levels by ELISA. TNFα was measured with a commercially available ELISA-Kit (Quantikine®, Rat TNFα/TNFSF1A, R&D Systems, Minneapolis, USA).
The compound effect on TNFα release was calculated individually in percent (%) for each compound treated animal in relation to the mean TNFα level of the vehicle treated LPS-challenged control group: % effect=(Y−K)/K*100 • with defining: • Y=plasma TNFα concentration of the compound treated animal • K=mean plasma TNFα concentration of the vehicle treated group
Statistical analysis was performed on the primary TNFα concentrations by One-Way ANOVA and Dunnett's Multiple Comparison test vs. vehicle treated control group.

Compound	ED50 [mg/kg]
O=C(O)/C=C/c1ccc(Cl)c(NC(=O)c2cc(-c3ccccc3)cc3ccccc23)c1 [Example 3, (2E)-3-(4-chloro-3-{[(3-phenylnaphthalen-1-yl)carbonyl]amino}phenyl)prop-2-enoic acid]	0.1 to 3
O=C(O)/C=C/c1ccc(F)c(NC(=O)c2cc(-c3ccccc3F)cc3ccccc23)c1 [Example 9, (2E)-3-{3-[({3-[2-fluorophenyl]naphthalen-1-yl}carbonyl)amino]-4fluorophenyl}prop-2-enoic acid]	0.1 to 3
O=C(O)/C=C/c1ccc(F)c(NC(=O)c2cc(-c3cccc(F)c3)cc3ccccc23)c1 [Example 10, (2E)-3-{3-[({3-[3-fluorophenyl]naphthalen-1-yl}carbonyl)amino]-4fluorophenyl}prop-2-enoic acid]	0.1 to 3
O=C(O)/C=C/c1ccc(F)c(NC(=O)c2cc(-c3ccccc3)cc3ccccc23)c1 [Example 2, (2E)-3-(4-fluoro-3-{[(3-phenylnaphthalen-1-yl)carbonyl]amino}phenyl)prop-2-enoic acid]	0.1 to 3
O=C(O)/C=C/c1cccc(NC(=O)c2cc(-c3ccccc3)cc3ccccc23)c1 [Example 1, (2E)-3-(3-{[(3-phenylnaphthalen-1-yl)carbonyl]amino}phenyl)prop-2-enoic acid]	0.1 to 3
